Test results: PubChem BioAssay (NCI)
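Tested at 5 concentrations; 48 h exposure; 96-well plates; endpoints linearly interpolated, else capped at highest concentration. The concentration for 50% growth inhibition is given as GI50. TGI is the concentration that stops growth completely.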

Key:
Assay in all cases: DTP human tumour cell line panel, 48 h
[1] = tested on: 786-0 renal
[2] = tested on: A498 renal
[3] = tested on: A549 NSCLC
[4] = tested on: ACHN renal
[5] = tested on: CAKI-1 renal
[6] = tested on: CCRF-CEM leukemia
[7] = tested on: COLO 205 colon
[8] = tested on: DU-145 prostate
[9] = tested on: EKVX NSCLC
[10] = tested on: HCC-2998 colon
[11] = tested on: HCT-116 colon
[12] = tested on: HCT-15 colon
[13] = tested on: HL-60(TB) leukemia
[14] = tested on: HOP-62 NSCLC
[15] = tested on: HS 578T breast
[16] = tested on: HT29 colon
[17] = tested on: IGROV1 ovarian
[18] = tested on: K-562 leukemia
[19] = tested on: KM12 colon
[20] = tested on: LOX IMVI melanoma
[21] = tested on: M14 melanoma
[22] = tested on: MALME-3M melanoma
[23] = tested on: MCF7 breast
[24] = tested on: MDA-MB-231 breast
[25] = tested on: MDA-MB-435
[26] = tested on: MOLT-4 leukemia
[27] = tested on: NCI-H226 lung
[28] = tested on: NCI-H23 lung
[29] = tested on: NCI-H460 lung
[30] = tested on: NCI-H522 lung
[31] = tested on: NCI/ADR-RES ovarian
[32] = tested on: OVCAR-3 ovarian
[33] = tested on: OVCAR-4 ovarian
[34] = tested on: OVCAR-5 ovarian
[35] = tested on: OVCAR-8 ovarian
[36] = tested on: PC-3 prostate
[37] = tested on: RPMI-8226 leukemia
[38] = tested on: RXF 393 renal
[39] = tested on: SF-268 CNS
[40] = tested on: SF-295 CNS
[41] = tested on: SF-539 CNS
[42] = tested on: SK-MEL-2 melanoma
[43] = tested on: SK-MEL-28 melanoma
[44] = tested on: SK-MEL-5 melanoma
[45] = tested on: SK-OV-3 ovarian
[46] = tested on: SN12C renal
[47] = tested on: SNB-19 CNS
[48] = tested on: SNB-75 CNS
[49] = tested on: SR leukemia
[50] = tested on: SW-620 colon
[51] = tested on: T-47D breast
[52] = tested on: TK-10 renal
[53] = tested on: U251 CNS
[54] = tested on: UACC-257 melanoma
[55] = tested on: UACC-62 melanoma
[56] = tested on: UO-31 renal

Structure (SMILES): COc1ccc2c(c1)/C(=N/OC(C)=O)c1c-2c(Nc2cccc(/C(C)=N/OC(C)=O)c2)nc2ccccc12
- GI50 [1]: 37 µM
- TGI [1]: > 100 µM
- GI50 [2]: 57.3 µM
- TGI [2]: > 100 µM
- GI50 [3]: 31.1 µM
- TGI [3]: > 100 µM
- GI50 [4]: 21.4 µM
- TGI [4]: 61 µM
- GI50 [5]: 27.3 µM
- TGI [5]: 55.9 µM
- GI50 [6]: 84.6 µM
- TGI [6]: > 100 µM
- GI50 [7]: > 100 µM
- TGI [7]: > 100 µM
- GI50 [8]: 29.5 µM
- TGI [8]: 85.6 µM
- GI50 [9]: 21.9 µM
- TGI [9]: 53.1 µM
- GI50 [10]: 70.8 µM
- TGI [10]: > 100 µM
- GI50 [11]: 41.5 µM
- TGI [11]: > 100 µM
- GI50 [12]: > 100 µM
- TGI [12]: > 100 µM
- GI50 [13]: > 100 µM
- TGI [13]: > 100 µM
- GI50 [14]: 37.6 µM
- TGI [14]: > 100 µM
- GI50 [15]: 40.3 µM
- TGI [15]: > 100 µM
- GI50 [16]: > 100 µM
- TGI [16]: > 100 µM
- GI50 [17]: 47.5 µM
- TGI [17]: > 100 µM
- GI50 [18]: 37.9 µM
- TGI [18]: > 100 µM
- GI50 [19]: 48.9 µM
- TGI [19]: > 100 µM
- GI50 [20]: 67.7 µM
- TGI [20]: > 100 µM
- GI50 [21]: > 100 µM
- TGI [21]: > 100 µM
- GI50 [22]: 96.4 µM
- TGI [22]: > 100 µM
- GI50 [23]: 85.1 µM
- TGI [23]: > 100 µM
- GI50 [24]: > 100 µM
- TGI [24]: > 100 µM
- GI50 [25]: > 100 µM
- TGI [25]: > 100 µM
- GI50 [26]: 25.8 µM
- TGI [26]: 62.6 µM
- GI50 [27]: 86.3 µM
- TGI [27]: > 100 µM
- GI50 [28]: 35 µM
- TGI [28]: > 100 µM
- GI50 [29]: 97.4 µM
- TGI [29]: > 100 µM
- GI50 [30]: 35 µM
- TGI [30]: > 100 µM
- GI50 [31]: 55.3 µM
- TGI [31]: > 100 µM
- GI50 [32]: 56.5 µM
- TGI [32]: > 100 µM
- GI50 [33]: 86.6 µM
- TGI [33]: > 100 µM
- GI50 [34]: > 100 µM
- TGI [34]: > 100 µM
- GI50 [35]: 17 µM
- TGI [35]: 58.4 µM
- GI50 [36]: 21.1 µM
- TGI [36]: 41.5 µM
- GI50 [37]: 64.6 µM
- TGI [37]: > 100 µM
- GI50 [38]: 13.4 µM
- TGI [38]: 40.7 µM
- GI50 [39]: 39 µM
- TGI [39]: > 100 µM
- GI50 [40]: 29.9 µM
- TGI [40]: > 100 µM
- GI50 [41]: 63.9 µM
- TGI [41]: > 100 µM
- GI50 [42]: 59.1 µM
- TGI [42]: > 100 µM
- GI50 [43]: > 100 µM
- TGI [43]: > 100 µM
- GI50 [44]: 60.2 µM
- TGI [44]: > 100 µM
- GI50 [45]: > 100 µM
- TGI [45]: > 100 µM
- GI50 [46]: 48.8 µM
- TGI [46]: > 100 µM
- GI50 [47]: 55.4 µM
- TGI [47]: > 100 µM
- GI50 [48]: 30.9 µM
- TGI [48]: 64.5 µM
- GI50 [49]: 94.4 µM
- TGI [49]: > 100 µM
- GI50 [50]: 47.5 µM
- TGI [50]: > 100 µM
- GI50 [51]: 37.3 µM
- TGI [51]: > 100 µM
- GI50 [52]: 77.6 µM
- TGI [52]: > 100 µM
- GI50 [53]: 32.4 µM
- TGI [53]: > 100 µM
- GI50 [54]: 36.2 µM
- TGI [54]: > 100 µM
- GI50 [55]: > 100 µM
- TGI [55]: > 100 µM
- GI50 [56]: > 100 µM
- TGI [56]: > 100 µM
